Experimental data taken from patent US11858899B2, “Complexation of pirfenidone with polyphenolic calixarene or resorcin[4]arenes” (University of Cincinnati, priority 2021, dated 2024).
Converted amounts (≈) assume the structure as drawn. “Also recorded” adds a separate entry of the source. Where two headings read alike, the source gives them in different places.

Key:
E. Coli (G-ve) bacteria = test: Zone of inhibition (ZI) paper disc test, antibacterial/antioxidant activity; assay type: cell-based; details: for Inference: radical scavenger: from ZI change with H2O2 / pyrogallol; for Zone of inhibition (ZI), 5 uL of (Compound + H2O2): premixed 0.01M compound + 0.88M H2O2, 1:1; for Zone of inhibition (ZI), 5 uL of (Compound + Pyrogallol): premixed 0.01M compound + 1M Pyrogallol, 1:1; for Zone of inhibition (ZI), 5 uL of 0.01M Compound: pure compound on paper disc;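 as to Inference: radical scavenger: smaller zone than oxidant alone means antioxidant and larger means oxidant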
Description: (§1) Tests were conducted to check the antioxidant/antibacterial activity of macrocycle and host-guest compounds. 5 uL of 0.01M compound, 5 uL (premixed, 0.01M compound+1M Pyrogallol, 1:1) and 5 uL (premixed, 0.01M compound+0.88M H2O2, 1:1) were added on paper discs placed on plates. 5 uL of 1M pyrogallol, 5 uL of 0.88M H2O2 were used as control (oxidants). In the following tables, Decrease/Increase means wrt pure H2O2 or pyrogallol. […] Zone=mm of zone width around disk. Decrease/Increase wrt pure H2O2 or pyrogallol.

[1] = system: klebsiella pneumoniae (G -ve) bacteria; test: as above; assay type: cell-based; details: for Inference: radical scavenger: from ZI change with H2O2 / pyrogallol; for Zone of inhibition (ZI), 5 uL of (Compound + H2O2): premixed 0.01M compound + 0.88M H2O2, 1:1; for Zone of inhibition (ZI), 5 uL of (Compound + Pyrogallol): premixed 0.01M compound + 1M Pyrogallol, 1:1; for Zone of inhibition (ZI), 5 uL of 0.01M Compound: pure compound on paper disc;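 as to Inference: radical scavenger: smaller zone than oxidant alone means antioxidant and larger means oxidant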
Description: as §1

[2] = system: Pseudomonas aeruginosa (G-ve) bacteria; test: as above; assay type: cell-based; details: for Inference: radical scavenger: from ZI change with H2O2 / pyrogallol; for Zone of inhibition (ZI), 5 uL of (Compound + H2O2): premixed 0.01M compound + 0.88M H2O2, 1:1; for Zone of inhibition (ZI), 5 uL of (Compound + Pyrogallol): premixed 0.01M compound + 1M Pyrogallol, 1:1; for Zone of inhibition (ZI), 5 uL of 0.01M Compound: pure compound on paper disc;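 as to Inference: radical scavenger: smaller zone than oxidant alone means antioxidant and larger means oxidant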
Description: as §1

[3] = system: Staphylococcus aureus (G+ve) bacteria; test: as above; assay type: cell-based; details: for Inference: radical scavenger: from ZI change with H2O2 / pyrogallol; for Zone of inhibition (ZI), 5 uL of (Compound + H2O2): premixed 0.01M compound + 0.88M H2O2, 1:1, decrease vs pure H2O2 = antioxidant; for Zone of inhibition (ZI), 5 uL of (Compound + Pyrogallol): premixed 0.01M compound + 1M Pyrogallol, 1:1, decrease vs pure pyrogallol = antioxidant; for Zone of inhibition (ZI), 5 uL of 0.01M Compound: pure compound on paper disc, zone width around disk
Description: Tests were conducted to check the antioxidant/antibacterial activity of macrocycle and host-guest compounds. 5 uL of 0.01M compound, 5 uL (premixed, 0.01M compound+1M Pyrogallol, 1:1) and 5 uL (premixed, 0.01M compound+0.88M H2O2, 1:1) were added on paper discs placed on plates. 5 uL of 1M pyrogallol, 5 uL of 0.88M H2O2 were used as control (oxidants). In the following tables, Decrease/Increase means wrt pure H2O2 or pyrogallol. […] Zone=mm of zone width around disk.

C. acnes = test: Broth serial dilution MIC / growth inhibition in 96-well plate; assay type: cell-based, Cutibacterium acnes; details: for MIC: test range 128-2 ug/mL, LB medium; for GI (growth inhibition): at the MIC concentration
Description: 3 mg/ml stock solutions of RsC1, PFD and RsC1-PFD were prepared in DMSO (bcoz host soluble in DMSO solution). From the stock, a working solution 4× (highest conc. for each compound in plate) was prepared in LB media. 50 uL of LB media were first added in each well (96 well plate). Then a 4× solution of each respective compound was added to the first row (A4-A12) except A1-A3 (Positive control/bacterial innoculum). Then the 4× was serially diluted up to well G for all 3 compounds. (A-G). Then, a 50 uL aliquot of the 100-fold diluted bacterial inoculum was added in each test well. Individual test concentrations (in triplicate wells in a 96-well plate) for the given compounds were achieved by serial dilution by using LB medium. Total volume in each well was 100 uL. The final-test concentration range for the individual test compounds for C. acne were as follows: Macrocycle, PFD and RsC1-PFD complex (128-2 ug/mL). The results are shown in FIG. 10, which is a bar plot of absorbance (at 600 nm) at various test compound concentrations, showing the percent inhibition of pathogen growth in the presence of decreasing concentrations of the test compounds using a twofold dilution series.
(§2) 3 mg/ml stock solutions of PFD, RsC4-PFD (1:1 complex), and RsC4 were prepared in DMSO (bcoz host soluble in DMSO solution). From the stock, a working solution 4× (highest conc. for each compound in plate) was prepared in LB media. 50 uL of LB media was first added in each well (96 well plate). Then a 4× solution of the respective compound was added to the first row (A4-A12) except A1-A3 (Positive control/bacterial innoculum). Then, the 4× was serially diluted up to well G for all 3 compounds. (A-G). Then, a 50 uL aliquot of the 100-fold diluted bacterial inoculum was added in each test well. Individual test concentrations (in triplicate wells in a 96-well plate) for the given compounds were achieved by serial dilution by using LB medium. Total volume in each well is 100 uL. The final-test concentration range for the individual test compounds for C. acne as follows: Macrocycle, PFD and RsC4-PFD complex (128-2 ug/mL).
as §2, with “PFD, RsC1, RsC1-PFD (1:1 complex), RsC4, and” for “PFD,”, “complex)” for “complex), and RsC4”, “acnes, S. aureus and P. aeruginosa are” for “acne”, “PFD, RsC1, RsC4, RsC1-PFD complex” for “Macrocycle, PFD”

P. aeruginosa (BAMF) = test: as above; assay type: cell-based, Pseudomonas aeruginosa; details: for MIC: test range 128-2 ug/mL, LB medium; for GI (growth inhibition): at the MIC concentration
Description: as §2, with “PFD, RsC1, RsC1-PFD (1:1 complex), RsC4, and” for “PFD,”, “complex)” for “complex), and RsC4”, “acnes, S. aureus and P. aeruginosa are” for “acne”, “PFD, RsC1, RsC4, RsC1-PFD complex” for “Macrocycle, PFD”

S. aureus (MU50) = test: as above; assay type: cell-based, Staphylococcus aureus; details: for MIC: test range 128-2 ug/mL, LB medium; for GI (growth inhibition): at the MIC concentration
Description: as §2, with “PFD, RsC1, RsC1-PFD (1:1 complex), RsC4, and” for “PFD,”, “complex)” for “complex), and RsC4”, “acnes, S. aureus and P. aeruginosa are” for “acne”, “PFD, RsC1, RsC4, RsC1-PFD complex” for “Macrocycle, PFD”

Structure (SMILES) | GI (growth inhibition) (C. acnes) [%] | Inference: radical scavenger (E. Coli (G-ve) bacteria) | Zone of inhibition (ZI), 5 uL of (Compound + H2O2) (E. Coli (G-ve) bacteria) | Zone of inhibition (ZI), 5 uL of (Compound + Pyrogallol) (E. Coli (G-ve) bacteria) | Zone of inhibition (ZI), 5 uL of 0.01M Compound (E. Coli (G-ve) bacteria) | Inference: radical scavenger [1] | Zone of inhibition (ZI), 5 uL of (Compound + H2O2) [1] | Zone of inhibition (ZI), 5 uL of (Compound + Pyrogallol) [1] | Zone of inhibition (ZI), 5 uL of 0.01M Compound [1] | Inference: radical scavenger [2] | Zone of inhibition (ZI), 5 uL of (Compound + H2O2) [2] | Zone of inhibition (ZI), 5 uL of (Compound + Pyrogallol) [2] | Zone of inhibition (ZI), 5 uL of 0.01M Compound [2] | GI (growth inhibition) (P. aeruginosa (BAMF)) [%] | GI (growth inhibition) (S. aureus (MU50)) [%] | Inference: radical scavenger [3] | Zone of inhibition (ZI), 5 uL of (Compound + H2O2) [3] | Zone of inhibition (ZI), 5 uL of (Compound + Pyrogallol) [3] | Zone of inhibition (ZI), 5 uL of 0.01M Compound [3] | further results
OO [H2O2] | – | – | – | – | – | – | – | – | – | – | – | – | – | – | – | – | – | – | – | Zone of inhibition (ZI), 5 uL of 0.88M H2O2 (E. Coli (G-ve) bacteria; oxidant control alone): ZI (2.9 mm; Zone of inhibition (ZI), 5 uL of 0.88M H2O2 ([1]; oxidant control alone): ZI (3 mm; Zone of inhibition (ZI), 5 uL of 0.88M H2O2 ([2]; oxidant control alone): ZI (2.7 mm; Zone of inhibition (ZI), 5 uL of 0.88M H2O2 ([3]; oxidant control alone): (4.6 mm)
Cc1ccc(=O)n(-c2ccccc2)c1 [PFD, 5-methyl-1-phenylpyridin-2-one] | 98 | Moderate OH | (1.7 mm) | No ZI | No ZI | Moderate | (2.2 mm) | No ZI | No ZI | no free radical scavenging effect | (2.7 mm) | pyrogallol (1.2 mm | No ZI | 35 | 45 | low to high free radical scavenging effect; also recorded: Moderate | slightly (3.8 mm | No ZI | No ZI | MIC (C. acnes; Cutibacterium acnes, read-out: MIC): 128 µg/mL (≈ 691 µM); MIC (P. aeruginosa (BAMF); Pseudomonas aeruginosa, read-out: MIC): 128 µg/mL (≈ 691 µM); MIC (S. aureus (MU50); Staphylococcus aureus, read-out: MIC): 128 µg/mL (≈ 691 µM)
Oc1cccc(O)c1O [pyrogallol, Pyrogallol] | – | – | – | – | – | – | – | – | – | – | – | – | – | – | – | – | – | – | – | Zone of inhibition (ZI), 5 uL of 1M pyrogallol (E. Coli (G-ve) bacteria; oxidant control alone): ZI (0.9 mm; Zone of inhibition (ZI), 5 uL of 1M pyrogallol ([1]; oxidant control alone): ZI (0.9 mm; Zone of inhibition (ZI), 5 uL of 1M pyrogallol ([2]; oxidant control alone): ZI (1.1 mm; Zone of inhibition (ZI), 5 uL of 1M pyrogallol ([3]; oxidant control alone): (3.3 mm)
OCCN1CCN(Cc2ccc(O)c3ncccc23)CC1 [VK] | – | High radical | No ZI | No ZI | No ZI | Moderate | (2.3 mm) | No ZI | No ZI | Moderate | (2.2 mm) | (0.7 mm) | No ZI | – | – | Low radical | (3.7 mm) | (2.3 mm) | No ZI | –
CCCCC1c2cc(c(O)cc2O)C(CCCC)c2cc(c(O)cc2O)C(CCCC)c2cc(c(O)cc2O)C(CCCC)c2cc1c(O)cc2O (stereo not shown) [RsC4, C-butylresorcin[4]arene] | 98 | Moderate | (1.7 mm) | No ZI | No ZI | High OH | No ZI | No ZI | No ZI | Low radical | (2.1 mm) | (1.4 mm) | No ZI | 56 | 52 | Low radical | (3.6 mm) | (2.3 mm) | No ZI | MIC (C. acnes): 128 µg/mL (≈ 180 µM); MIC (P. aeruginosa (BAMF)): 64 µg/mL (≈ 89.8 µM); MIC (S. aureus (MU50)): 128 µg/mL (≈ 180 µM); Inference: Anti-bacterial potential ([3]; from ZI of pure compound): none
CCCCCCC1c2cc(c(O)c(O)c2O)C(CCCCCC)c2cc(c(O)c(O)c2O)C(CCCCCC)c2cc(c(O)c(O)c2O)C(CCCCCC)c2cc1c(O)c(O)c2O (stereo not shown) [P6] | – | Moderate | (1.7 mm) | No ZI | No ZI | Moderate | (2 mm) | No ZI | No ZI | Low radical | (2.2 mm) | pyrogallol (1.2 mm | No ZI | – | – | Low radical | (3.8 mm) | (2 mm) | No ZI | –
